Key:
[1] = test system: allergic rhinitis/conjunctivitis against hazelnut pollen and grass pollen; assay: Allergic rhinitis/conjunctivitis on exposure to hazelnut pollen or grass pollen in patients; assay type: in vivo, human
Excerpt: The effect of the combination therapy on type I allergy (allergic conjunctivitis and rhinitis) was investigated since type I allergy is an antibody-induced disease which is regulated by T cells. […] In the allergy investigations, contact with the antigen took place aerogenically, by exposure to hazelnut pollen or the pollen of grasses.
First of all, the test subjects were exposed to the allergen pollens in order to verify the existence of the allergy.
After a month, the two test subjects were given a loading dose of in each case 100 mg of leflunomide on 3 consecutive days. The test subjects were then given a constant daily dose of 20 mg of leflunomide.
On the 4th day of the leflunomide administration, the test subjects were exposed to one of the two allergens.
After these 30 days, the leflunomide was eliminated from the body in an accelerated manner by means of the 3× daily administration of cholestyramine over a period of 10 days. During this accelerated elimination, the daily exposure to antigen was continued.
In addition, the test subjects were able to use vasoconstrictors, such as Otriven® nasal drops and Yxin® eyedrops, to alleviate acute symptoms.
Neomycin sulfate was used, at a concentration of 50 mg/ml in physiological sodium chloride solution, as an immunomodulatory substance, as eyedrops and as a metered nasal spray. During the allergen exposure (season of airborne pollen), the neomycin solution was initially administered every 3 hours during the day. As soon as symptoms of an allergic reaction, such as severe itching, tears, flow of nasal secretion or sneezing impulses, occurred, this inflammatory reaction was suppressed, within the first 5 days, by using the dexametasone eyedrops, the dexamethasone nasal spray, xylometazoline nasal drops and Yxin® eyedrops. The steroids and the vasoconstrictors were administered as required.

[2] = test system: contact allergy to nickel and cobalt (contact dermatitis); assay: Contact dermatitis induced with nickel or cobalt vaseline preparations in volunteer test subjects; assay type: in vivo, human
Excerpt: Contact dermatitis was selected as a model disease for the large number of T cell-mediated immune reactions (generally: overshooting damaging immune reactions) since it can be induced by applying the contact allergens to the skin and the severity of the inflammatory reaction and immune reaction can readily be assessed by observing the skin symptoms.
The contact allergies were induced by applying preparations in white vaseline. These vaseline preparations contained either 1% cobaltII chloride or 5% nickelII sulfate.
For inducing the contact dermatitis, the vaseline preparation was applied once daily to an area of approx. 2×2 cm^2, usually on the upper arm or the lower arm.
The contact dermatitis was subdivided into the following levels in accordance with the extent of the inflammatory reaction:
Level 1: very minor inflammatory reaction, slight reddening of the skin;
Level 2: minor inflammatory reaction, reddening of the skin and possible itching;
Level 3: slight inflammatory reaction, reddening and edematous swelling of the skin, itching;
Level 4: moderate inflammatory reaction, reddening, edematous swelling, vesicles or blister formation, itching;
Level 5: pronounced inflammatory reaction: reddening, edematous swelling, vesicles and blister formation, weeping erosions and possible incrustation.
The severity of the inflammatory reaction which occurred was controlled by administering Ultralan® tablets systemically. When the antigen-specific regulatory immune response was induced, the inflammatory reaction was kept in the range of levels 1 and 2 by administering fluocortolone (Ultralan®). If a contact dermatitis of level 3 or higher developed despite the administration of Ultralan®, the dose of Ultralan® was then increased up to the next dosage level. If required, the dose was increased once again 2 days after the last increase in the dose.
As soon as it was no longer possible to observe any symptoms of the contact dermatitis at a given dosage level of Ultralan®, the dose was reduced on the following day and subsequently maintained once again until all the symptoms of the contact allergy had disappeared, after which the dose of Ultralan was reduced once again until, finally, it was no longer necessary to administer any Ultralan®.
As a rule, the following gradations in the daily doses of Ultralan® were employed: 20 mg, 15 mg, 10 mg, 7.5 mg, 5 mg, 2.5 mg and 0 mg.
An appropriate blood level of leflunomide was achieved by means of a loading dose of 100 mg on the first three consecutive days of the leflunomide therapy; after that, the leflunomide dose was reduced to 20 mg per day. Unless otherwise stated, this dose of leflunomide was maintained for up to 30 days after the time point at which the administration of flucortolone was terminated.
Subsequently, the leflunomide was eliminated at an accelerated rate from the body by means of administering 3× daily doses of 8 grams of cholestyramine over a period of 10 days.
As described above, the antigen is applied to the skin once a day using a preparation prepared from white vaseline. As a rule, the antigen was administered up to the tenth day after the last administration of leflunomide.
In the investigations into the development of a regulatory immune response in connection with the contact dermatitis, a fresh exposure to the antigen against which a regulatory immune response had been developed was carried out no earlier than 1 month after the last contact with the antigen.

[3] = test system: rheumatoid arthritis; conditions: monotherapy; cited from earlier work
[4] = test system: susceptibility to infection; conditions: clinical investigations and investigations on experimental animals; cited from earlier work

## C[C@@H]1C[C@H]2[C@@H]3CCC4=CC(=O)C=C[C@]4(C)[C@@]3(F)[C@@H](O)C[C@]2(C)[C@@]1(O)C(=O)CO [dexamethasone]
[1]; Investigation 5.1, under neomycin solution 50 mg/ml every 3 hours, start of first 5 days
  requirement for dexamethasone administrations, initial average: 4 administrations per day
[1]; Investigation 5.1, under neomycin solution, within the first 5 days
  requirement for dexamethasone administrations, after decrease: 2 administrations per day

## Cc1oncc1C(=O)Nc1ccc(C(F)(F)F)cc1 [leflunomide, N-(4-trifluoromethylphenyl)-5-methylisoxazole-4-carboxamide]
[2]; Investigation 1.1, 4 weeks after end of treatment cycle, 2 weeks provocation
  symptoms of contact allergy on provocation with the antigen given during leflunomide: did not appear in any of the test subjects
[2]; Investigation 1.1, after steroids completely discontinued
  symptoms of the contact allergy during 30 days of daily leflunomide and antigen: not possible to observe any symptoms of the contact allergy
[2]; Investigation 1.1, cholestyramine over 10 days, continued allergen exposure
  symptoms of the contact allergy during accelerated elimination of leflunomide: not observed in any of the test subjects
[2]; Investigation 1.1, leflunomide 100 mg x 3 days then 20 mg/day, allergen from 4th day, within 2 days, before steroids
  level of skin reaction (contact dermatitis levels 1-5): 3 to 4 level
[2]; Investigation 1.2, 4 weeks later, within 2 days
  level of contact dermatitis on exposure to the antigen not given during leflunomide: 3 to 4 level
[2]; Investigation 1.3, allergen switched on 3rd day
  symptoms of contact allergy to the leflunomide-associated allergen applied on still inflamed skin: persisted as long as the contact allergen was being administered
[2]; Investigation 1.4, after 4 weeks break, exposure period of 2 weeks
  contact allergy on re-exposure to the leflunomide-associated antigen after inflammation regressed: did not react with any contact allergy
[2]; Investigation 1.5, period of 2 weeks
  symptoms of contact allergy after switch to the leflunomide-associated antigen under inflammation: persisted
[2]; Investigation 1.5, within 2 days
  level of contact allergy on exposure to the antigen not given during leflunomide: 3 to 4 level
[2]; Investigation 1.6, 4 weeks later, first 2 weeks of exposure
  symptoms of contact allergy on exposure to the leflunomide-associated allergen: No symptoms of a contact allergy were observed
[2]; Investigation 1.6, continued allergen exposure
  time to disappearance of inflammatory reactions after UV-A on the side with contact allergen: ≥ 7 days
[2]; Investigation 1.6, identical irradiation of both arms
  symptoms of inflammation after UV-A irradiation on arm with contact allergen versus arm without: somewhat stronger
[2]; Investigation 3.1, shortened 2-week phase, days following first reddening
  course of contact allergy on allergen exposure: increasing symptoms of a contact allergy
[2]; Investigation 3.1, steroid-free leflunomide plus allergen phase shortened from 30 days to 2 weeks, exposure 4 weeks after discontinuing leflunomide
  onset of slight reddening after beginning allergen exposure: 3 to 4 days
[2]; Investigation 3.3, leflunomide and contact allergen continued for 20 days, then accelerated elimination
  regulatory immune response 4 weeks after treatment: a stable antigen-specific regulatory immune response had developed
[3]
  effect on rheumatoid arthritis when administered on its own: able to reduce the progression of rheumatoid arthritis but is not able to cure the disease
[4]
  susceptibility to infection: does not increase susceptibility to infection
[1]; Investigation 4.1, 2 test subjects, 4th day of leflunomide, before steroid
  reaction on first allergen exposure under leflunomide: reacted immediately with allergic symptoms
[1]; Investigation 4.1, 30 days plus 10 days cholestyramine, daily antigen
  allergy symptoms during steroid-free leflunomide plus antigen phase and accelerated elimination: no symptoms of an allergy appeared
[1]; Investigation 4.1, after one month break, daily exposure over 2 weeks
  allergic symptoms on re-exposure to the allergen given during leflunomide: did not develop any symptoms of an allergic reaction
[1]; Investigation 4.2, grass pollen dust 1x daily, within 2 days
  allergy symptoms on exposure to the antigen not given during leflunomide: developed symptoms of an allergy
[1]; Investigation 4.3, 3rd and 4th day, only leflunomide-associated antigen administered
  allergy symptoms to the leflunomide-associated antigen under inflammatory conditions: Symptoms of an allergy developed
[1]; Investigation 4.4, after a further 4 weeks, 2 weeks of daily exposure
  allergy symptoms on re-exposure to the leflunomide-associated antigen: No symptoms of an allergy developed

## Neomycin sulfate
[1]; Investigation 5.1, 2 test subjects, direct exposure to hazelnut pollen twice daily, no dexamethasone or cromoglycic acid
  allergy symptoms on intensified antigen exposure during neomycin: no allergy symptoms appeared in either of the test subjects
[1]; Investigation 5.1, after a month break, daily exposure for 2 weeks
  allergy symptoms on re-exposure to the allergen given during neomycin: did not exhibit any allergy symptoms
[1]; Investigation 5.2, dust of grass pollens 1x daily, within 2 days
  allergy symptoms on exposure to the antigen not given during neomycin: developed symptoms of an allergy
[1]; Investigation 5.3, 3rd and 4th day, only neomycin-associated antigen administered
  allergy symptoms to the neomycin-associated antigen under inflammatory conditions: Symptoms of an antigy developed
[1]; Investigation 5.4, after another break of 4 weeks, 2 weeks of daily exposure
  allergy symptoms on re-exposure to the neomycin-associated antigen: had not developed any allergy symptoms

## C[C@@H]1C[C@H]2[C@@H]3C[C@H](F)C4=CC(=O)C=C[C@]4(C)[C@H]3[C@@H](O)C[C@]2(C)[C@H]1C(=O)CO [Ultralan®, fluocortolone]
[2]; Investigation 1.1, 4 test subjects, Ultralan alone, no leflunomide, continued allergen exposure
  contact dermatitis while Ultralan was being reduced stepwise: reappeared
[2]; Investigation 1.1, Ultralan added to leflunomide and allergen, allergy adjusted to grade 1-2
  time to complete disappearance of contact allergy symptoms: 3 to 5 days
[2]; Investigation 1.5, allergen continued for further 2 weeks after Ultralan discontinued
  symptoms of contact allergy after brief Ultralan suppression and discontinuation: no symptoms of any contact allergy appeared
[2]; Investigation 2.1, 2 test subjects, fully suppressive Ultralan dose for 4 weeks with leflunomide and allergen, one day after discontinuation
  symptoms of contact allergy after abrupt Ultralan discontinuation: Massive symptoms of the contact allergy developed
[2]; Investigation 3.2, single administration of 5 mg Ultralan with simultaneous leflunomide
  time to disappearance of symptoms: one
[2]; systemic tablets, as a rule
  dose of Ultralan sufficient to restrict the symptoms of the contact allergy to levels 1 to 2: at most 10 mg/day
[1]; Investigation 4.1, 10 mg Ultralan, Otriven nasal drops, Yxin eyedrops, with leflunomide
  allergic symptoms immediately after antigen exposure under Ultralan and vasoconstrictors: only slight symptoms of an allergic reaction
[1]; Investigation 4.1, constant treatment with Ultralan and leflunomide
  time to complete disappearance of allergy symptoms directly after antigen exposure: ≤ 4 days

— US20030017166A1, “Combination preparation for the therapy of immunological diseases” (priority 2001, published 2003)
